According to ChEMBL document CHEMBL1150548, “Dopamine autoreceptor agonists: computational studies, synthesis and biological investigations” (Bioorg Med Chem Lett, 1993):

What was measured:
D(1A) dopamine receptor = D(1A) dopamine receptor (Rattus norvegicus, UniProt P18901); assay: Compound was evaluated for binding affinity to Dopamine receptor D1 labeled with [3H]-SCH- 23390 (0.3 nM) in rat striatal membranes; format: cell membranes, Striatum, Membrane
D(2) dopamine receptor [1] = target: T1, D(2) dopamine receptor (Rattus norvegicus, UniProt P61169); assay: Compound was evaluated for binding affinity to Dopamine receptor D2 labeled with [3H]spiroperidol (0.5 nM) in rat striatal membranes; format: cell membranes, Striatum, Membrane
T1 sequence (P61169 whole entry): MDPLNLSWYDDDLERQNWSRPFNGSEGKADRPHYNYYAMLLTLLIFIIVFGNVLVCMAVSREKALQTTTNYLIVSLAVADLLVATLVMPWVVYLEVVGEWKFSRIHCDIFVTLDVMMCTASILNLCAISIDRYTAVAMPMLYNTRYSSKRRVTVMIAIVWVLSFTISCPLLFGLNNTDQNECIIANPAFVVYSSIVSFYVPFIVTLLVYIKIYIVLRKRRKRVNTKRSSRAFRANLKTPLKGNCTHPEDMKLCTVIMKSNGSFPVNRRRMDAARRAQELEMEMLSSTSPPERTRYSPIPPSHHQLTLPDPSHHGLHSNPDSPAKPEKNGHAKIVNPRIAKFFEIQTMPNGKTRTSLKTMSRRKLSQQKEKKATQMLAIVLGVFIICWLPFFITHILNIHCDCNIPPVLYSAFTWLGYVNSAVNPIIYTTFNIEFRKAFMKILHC

Mus musculus [2] = assay: Compound was evaluated for agonistic activity (DA receptor) by inhibition of GBL (gamma-butyralactone)-induced L-Dopa accumulation at a dose 10 mg/kg; format: functional
D(2) dopamine receptor [3] = target: T1, D(2) dopamine receptor; assay: Compound was evaluated for binding affinity to Dopamine receptor D2 labeled with [3H]-SND 919 (0.5 nM) in rat striatal membranes; format: cell membranes, Striatum, Membrane
Mus musculus [4] = assay: Compound was evaluated for agonistic activity (DA receptor) by inhibition of GBL (gamma-butyralactone)-induced L-Dopa accumulation at a dose of 10 mg/Kg; format: functional

Sequence of D(1A) dopamine receptor (P18901 whole entry): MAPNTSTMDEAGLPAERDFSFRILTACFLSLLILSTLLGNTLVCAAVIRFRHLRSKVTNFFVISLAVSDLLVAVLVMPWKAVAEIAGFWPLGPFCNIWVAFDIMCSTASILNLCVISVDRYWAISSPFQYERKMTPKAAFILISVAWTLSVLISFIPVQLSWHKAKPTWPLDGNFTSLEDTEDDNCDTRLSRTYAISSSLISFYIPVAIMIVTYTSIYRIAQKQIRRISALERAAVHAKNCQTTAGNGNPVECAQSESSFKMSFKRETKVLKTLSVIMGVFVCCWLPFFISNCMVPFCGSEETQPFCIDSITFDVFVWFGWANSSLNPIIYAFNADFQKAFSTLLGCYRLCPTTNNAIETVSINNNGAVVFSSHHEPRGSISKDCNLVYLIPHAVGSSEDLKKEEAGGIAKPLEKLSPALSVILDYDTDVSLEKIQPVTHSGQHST

| IC50 (D(1A) dopamine receptor) [µM] | IC50 (D(2) dopamine receptor [1]) [µM] | IC50 (D(2) dopamine receptor [3]) [µM] | Compound | inhibition in vivo at 10 mg/kg (Mus musculus [2]) [%] | inhibition in vivo at 10 mg/kg (Mus musculus [4]) [%] |
| --- | --- | --- | --- | --- | --- |
| 14.5 | 7.1 | 0.03 | CCCN(CCC)[C@H]1CCn2cccc2C1 | 62 | – |
| > 100 | > 100 | 2.7 | CCCNC1Cc2cccn3ncc(c23)C1 (centres undefined) | – | – |
| > 100 | > 100 | 2.8 | NC1Cc2cccn3ncc(c23)C1 (centres undefined) | – | – |
| > 100 | 50.4 | 0.26 | CCCN(CCC)C1Cc2cccn3ncc(c23)C1 (centres undefined) | – | 57 |
